The source of these data is patent US12491225B2, “Antiviral compositions and methods” (RALCO NUTRITION, INC., priority 2014, dated 2025).

What all share (details): trolox equivalents
Assay [1] is described as follows: ORAC, peroxyl radical. The text has this: (§1) Antiviral EO compositions as described herein can provide antioxidant properties to a subject or host system. Antioxidants can enhance neutrophil function, improve fertility, reduce heat stress related pregnancy losses, reduce frequency of retained placentas, and reduce metritis in dairy cows. Oxygen radical absorbance capacity (ORAC) is the ability of a compound or composition to act as a proton donor and reducing agent for oxygen radicals. In particular, ORAC measures the ability of a compound or composition to act as a reducing agent for peroxyl radicals, hydroxyl radicals, peroxynitrite, superoxide anion, and singlet oxygen, the five most damaging oxygen radicals.
(§2) ORAC capabilities of EO compositions were tested Brunswick Labs, Massachusetts. Table 20 illustrates the antioxidant ability of several embodiments provided herein, as compared to an industry standard antioxidant, Vitamin E. Results are expressed as trolox equivalents (TE/100 g) for each composition: […]

Assay [2] is described as follows: ORAC, hydroxyl radical.
From the text: as §1, §2

The nature of assay [3]: ORAC, peroxynitrite.
From the text: as §1, §2

Assay [4] is described as follows: ORAC, superoxide anion.
From the text: as §1, §2

The nature of assay [5]: ORAC, singlet oxygen.
From the text: as §1, §2

Assay [6] can be described thus: Total ORAC.
From the text: as §1, §2

Arabinogalactan: the “ORAC, Peroxyl radical” value in assay [1] is reported as 20600 TE/100 g. In assay [2], the “ORAC, Hydroxyl radical” value came out at 46400 TE/100 g. The “ORAC, Peroxynitrite” value in assay [3] came to 1200 TE/100 g. The “ORAC, Superoxide anion” value in assay [4] came to 16600 TE/100 g. In assay [5], the “ORAC, Singlet oxygen” value is on record as 11600 TE/100 g. Moreover, in assay [6], the “Total ORAC” value is on record as 96400 TE/100 g.
On to Vitamin E [Natural Vitamin E], for which the “ORAC, Peroxyl radical” value in assay [1] came out at 2100 TE/100 g. Besides, the “ORAC, Hydroxyl radical” value in assay [2] worked out at 0 TE/100 g. Further, in assay [3], the “ORAC, Peroxynitrite” value worked out at 0 TE/100 g. In assay [4], the “ORAC, Superoxide anion” value was 0 TE/100 g. In addition, the “ORAC, Singlet oxygen” value in assay [5] amounted to 37100 TE/100 g. Also, the “Total ORAC” value in assay [6] was 39200 TE/100 g.
